“Also recorded” adds a separate entry of the source.
Key:
[1] = system: tau protein; conditions: SH-SY5Y cells, 3 hours, Western blot
From the text: (§1) GAPDH was used as an internal reference protein.

[2] = system: β-catenine; conditions: CHO cells, 0-50 mM, 2 hours, Western blot
From the text: as §1

[3] = system: Notch protein; conditions: SH-SY5Y cells, 3 hours, concentration of less than 50 mM, Western blot
From the text: GAPDH was used as an internal reference protein. A Notch protein is an important signaling molecule at the downstream of GSK-3, and plays an important positive role in regulating the proliferation and survival of cells.

[4] = target: GSK-3β (Mus musculus, UniProt Q9WV60); conditions: APP/PS1 mice, gavage, 0.02 and 0.08 mmol/mouse, 4 hours after administration
Experimental: Brain tissues were extracted, and a homogenate of the brain tissues was prepared.

[5] = target: GSK-3β (Cricetulus griseus, UniProt A0A061I155); conditions: CHO cells, treated 2 hours, 0-50 mM (vs lithium isobutyrate) or 0-90 mM (vs lithium carbonate), Western blot, GAPDH reference
From the text: The cells were continuously subjected to lysis by an RIPA buffer containing a protease inhibitor, followed by detection by Western blot with phosphorylated GSK-3β (Ser9) or a total GSK-3β antibody as an antibody.
GAPDH (glyceraldehyde-3-phosphate dehydrogenase) was used as an internal reference protein.

[6] = system: HEK293 cells; conditions: 5 mM, 4 hours, confocal microscope
[7] = system: Kunming mice
Experimental: According to the Horn's method, 40 Kunming mice (with the weight of 19.8-22 g, including half male mice and half female mice) were divided into four groups at an equal ratio of 2.15, including a 464 mg/kg dose group, a 1,000 mg/kg dose group, a 2,150 mg/kg dose group and a 4,640 mg/kg dose group (each group was orally administrated at one time and includes 10 mice with half male mice and half female mice). […] 24 hours later, poisoning symptoms, occurrence time and death time of the experimental animals were observed every day for an observation period of 14 days. Dead animals and other animals sacrificed within 14 days were subjected to gross anatomy. When gross pathological changes were observed by naked eyes, pathological examination was performed.

Chain of GSK-3β (Cricetulus griseus, UniProt A0A061I155) (A0A061I155 1-428): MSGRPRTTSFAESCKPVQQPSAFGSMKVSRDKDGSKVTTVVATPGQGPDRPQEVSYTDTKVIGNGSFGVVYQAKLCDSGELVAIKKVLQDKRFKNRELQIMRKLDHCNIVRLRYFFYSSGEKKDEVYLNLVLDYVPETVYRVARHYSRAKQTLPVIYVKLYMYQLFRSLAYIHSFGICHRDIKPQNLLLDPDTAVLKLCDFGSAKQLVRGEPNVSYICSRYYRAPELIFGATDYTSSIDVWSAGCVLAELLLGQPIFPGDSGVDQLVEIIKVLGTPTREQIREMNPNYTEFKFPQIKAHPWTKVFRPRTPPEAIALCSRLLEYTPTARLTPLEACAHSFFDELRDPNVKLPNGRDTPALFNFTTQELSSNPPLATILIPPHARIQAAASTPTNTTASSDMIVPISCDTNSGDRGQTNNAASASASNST
Chain of GSK-3β (Mus musculus, UniProt Q9WV60) (Q9WV60 whole entry): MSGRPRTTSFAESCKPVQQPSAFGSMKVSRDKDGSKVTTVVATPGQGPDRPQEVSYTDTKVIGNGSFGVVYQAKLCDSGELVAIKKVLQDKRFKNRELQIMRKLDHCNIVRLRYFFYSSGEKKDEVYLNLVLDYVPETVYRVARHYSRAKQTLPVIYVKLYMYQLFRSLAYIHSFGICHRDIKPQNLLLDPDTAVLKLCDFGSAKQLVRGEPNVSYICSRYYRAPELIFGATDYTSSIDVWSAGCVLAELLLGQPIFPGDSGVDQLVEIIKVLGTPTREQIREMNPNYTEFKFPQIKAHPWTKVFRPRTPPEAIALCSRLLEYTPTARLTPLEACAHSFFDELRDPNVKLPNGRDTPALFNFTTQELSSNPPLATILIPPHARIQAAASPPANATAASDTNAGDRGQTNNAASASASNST

Row | Molecule | total tau protein expression ([1]; 0-50 mM) | concentration at which an effect on total tau protein expression is seen [1] [mM] | cell survival related protein (β-catenine) expression [2] | Notch protein expression [3] | effect on phosphorylated GSK-3β (Ser9) expression in brain tissues [4] | inhibition of the activity of GSK-3β (phosphorylated GSK-3β (Ser9) expression) [5] | change in morphology of HEK293 cells [6] | symptoms of experimental animals ([7]; oral, 464 mg/kg and 1,000 mg/kg dose groups) | symptoms and death of experimental animals ([7]; oral, 2,150 mg/kg and 4,640 mg/kg dose groups, within 24 hours)
1 | lithium isobutyrate-L-proline salt | significantly decrease the total tau protein expression in a concentration-dependent manner | 3.125 | significantly increases the cell survival related protein (β-catenine) expression in a dose-dependent manner | no influence on the Notch expression | significantly better than that of the lithium carbonate | significantly decreased phosphorylated GSK-3β (Ser9) expression in a dose-dependent manner; also recorded: dose-dependent inhibition effect on the GSK-3β, and the inhibition effect is stable | – | – | –
2 | O=C([O-])[O-].[Li+].[Li+] [lithium carbonate, reference compound] | – | 6.25 | – | obvious inhibition effect on the Notch protein expression | – | obviously lower than that of the lithium isobutyrate-L-proline salt | obvious change in morphology | no abnormalities | abnormal posture symptoms within 24 hours and are all dead

From US20230365492A1, “LITHIUM ORGANIC ACID-AMINO ACID SALT, AND CRYSTAL FORM, COMPOSITION AND APPLICATION THEREOF” (ANYU BIOTECHNOLOGY (HANGZHOU) CO., LTD., priority 2020, published 2023)
